{"source": "paper PMC4457826", "about": "(PLoS Pathogens, 2015)", "key": {"USP7 Ubl123": {"target": "T1, USP7 Ubl123 (Homo sapiens, UniProt Q93009)", "T1 construct": "Ubl123 (535–889); His tag (inferred from nickel-NTA purification; vector p15TV-L); made in house; host or cells: E. coli BL21(DE3)mgk", "T1 sequence (Q93009 535-889)": "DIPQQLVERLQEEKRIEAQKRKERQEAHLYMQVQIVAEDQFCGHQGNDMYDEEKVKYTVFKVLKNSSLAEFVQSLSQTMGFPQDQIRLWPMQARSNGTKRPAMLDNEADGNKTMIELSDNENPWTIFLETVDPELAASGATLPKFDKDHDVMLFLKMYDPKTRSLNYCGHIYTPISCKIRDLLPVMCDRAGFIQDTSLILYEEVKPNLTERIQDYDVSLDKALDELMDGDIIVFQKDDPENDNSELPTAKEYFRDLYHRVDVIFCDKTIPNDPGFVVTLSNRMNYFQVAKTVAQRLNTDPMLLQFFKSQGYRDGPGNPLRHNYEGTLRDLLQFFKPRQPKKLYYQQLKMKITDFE", "assay": "GST pull-down, Ubl123", "type": "binding", "conditions": "mutations within ICP0 615–629, Fig 3D", "experimental": "(§1) Fragments representing USP7-CTD Ubl domains were prepared using ligation independent cloning with In-Fusion (Clontech) in p15TV-L. The boundaries of the Ubl domain constructs are Ubl12 (535–776), Ubl123 (535–889), Ubl345 (776–1102), Ubl45 (886–1102) and USP7-CTD (535–1102). Plasmids expressing USP7-NTD, USP7, and myc-USP7 WT (pCANmycUSP7) were described previously. USP7 mutants E759A, D762A, D764A and D762A/D764A in Ubl123 were synthesized (Genscript) and inserted into the pET15b plasmid. USP7 mutants E759A, D762A, D764A, D762A/D764A and D762R/D764R in USP7-CTD were prepared by ACGT Corporation. The D762R/D764R mutant was then sub-cloned into wild-type pCANmycUSP7 for co-IP assays. The mammalian ICP0 expression construct pCI-110 ICP0 was obtained from Roger Everett.\n(§2) The ICP0, GMPS and UHRF1 WT and mutant peptides were cloned into pGEX-2TK and expressed in E. coli BL21(DE3). GST-ICP0 594–775 was obtained from Roger Everett. The GST-ICP0 or GST-GMPS or GST-UHRF1 or GST-ICP0 594–775 cell pellets from 500 ml of LB broth were re-suspended with PBS and lysed using sonication. The cleared lysates were applied to 500 μl of equilibrated glutathione-sepharose beads and incubated with rocking for 60 min at 4°C. Unbound proteins were removed by washing with PBS. Bound proteins were eluted with 50 mM Tris pH 8.0 and 100 mM NaCL containing 30 mM reduced glutathione. Equal amounts (250 μg) of the various USP7 proteins were incubated with 250 μg of the GST-ICP0 or GST-GMPS or GST-UHRF1 or GST-ICP0 594–775 peptides in 50 mM Tris pH 8.0, 100 mM NaCl, 5 mM DTT, 5% glycerol, 0.1 mM Benzamidine and 0.05 mM PMSF, applied to equilibrated glutathione-sepharose beads and incubated overnight with rocking at 4°C. After extensive washing, bound proteins were eluted with 50 mM Tris pH 8.0 and 100 mM NaCl containing 30 mM reduced glutathione."}, "[1]": {"test_system": "USP7-CTD mutant D762A/D764A", "assay": "GST pull-down, USP7-CTD D762A/D764A", "type": "binding, human", "experimental": "as §1, §2"}, "USP7-CTD mutant D764A": {"test_system": "USP7-CTD mutant D764A", "assay": "GST pull-down, USP7-CTD D764A", "type": "binding, human", "experimental": "as §1\nThe ICP0, GMPS and UHRF1 WT and mutant peptides were cloned into pGEX-2TK and expressed in E. coli BL21(DE3). GST-ICP0 594–775 was obtained from Roger Everett. The GST-ICP0 or GST-GMPS or GST-UHRF1 or GST-ICP0 594–775 cell pellets from 500 ml of LB broth were re-suspended with PBS and lysed using sonication. The cleared lysates were applied to 500 μl of equilibrated glutathione-sepharose beads and incubated with rocking for 60 min at 4°C. Unbound proteins were removed by washing with PBS. Bound proteins were eluted with 50 mM Tris pH 8.0 and 100 mM NaCL containing 30 mM reduced glutathione. […]"}, "USP7-CTD mutant D762A": {"test_system": "USP7-CTD mutant D762A", "assay": "GST pull-down, USP7-CTD D762A", "type": "binding, human", "experimental": "as §1, §2"}, "USP7-CTD": {"target": "T2, USP7-CTD (Homo sapiens, UniProt Q93009)", "T2 construct": "USP7-CTD (535–1102); His tag (inferred from nickel-NTA purification; vector p15TV-L); made in house; host or cells: E. coli BL21(DE3)mgk", "T2 sequence (Q93009 535-1102)": "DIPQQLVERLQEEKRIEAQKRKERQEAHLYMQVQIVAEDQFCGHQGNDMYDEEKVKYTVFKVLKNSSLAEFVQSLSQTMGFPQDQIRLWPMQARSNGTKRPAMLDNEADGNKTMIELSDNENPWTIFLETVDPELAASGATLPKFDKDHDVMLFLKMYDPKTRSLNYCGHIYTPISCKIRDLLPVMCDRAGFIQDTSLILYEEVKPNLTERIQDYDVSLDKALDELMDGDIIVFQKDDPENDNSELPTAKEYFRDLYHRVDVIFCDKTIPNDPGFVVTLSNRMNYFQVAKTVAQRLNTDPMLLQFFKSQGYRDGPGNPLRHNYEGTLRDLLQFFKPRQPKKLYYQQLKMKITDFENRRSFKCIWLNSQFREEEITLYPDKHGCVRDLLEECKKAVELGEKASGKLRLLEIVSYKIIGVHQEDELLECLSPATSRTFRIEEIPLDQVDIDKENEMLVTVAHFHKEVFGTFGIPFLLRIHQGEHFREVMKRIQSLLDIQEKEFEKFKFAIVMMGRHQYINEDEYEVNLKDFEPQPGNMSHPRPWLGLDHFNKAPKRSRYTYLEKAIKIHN", "assay": "GST pull-down, USP7-CTD", "type": "binding", "experimental": "as §1, §2"}, "FL-USP7": {"test_system": "FL-USP7", "assay": "GST pull-down, USP7-FL", "type": "binding, human", "conditions": "GST fusions 250 μg + USP7 250 μg, 50 mM Tris pH 8.0, 100 mM NaCl, 5 mM DTT, 5% glycerol, overnight 4°C; Coomassie stained gel; Fig 1A/1C; symbols not defined", "experimental": "The USP7 binding region is found within ICP0 residues 594–633 and mutagenesis studies have shown that K620 is essential for the interaction. In order to facilitate crystallization and structure determination, we set out to identify a shorter peptide that is capable of binding to USP7. To this end, a series of overlapping GST-ICP0 fusions (591–605, 595–609, 599–613, 603–617, 607–621, 611–625, 615–629, 619–633) were prepared (see Fig 1A for sequence details) and used in GST pull-down assays. […] Overall, our GST pull-down assays identified ICP0 residues between 619 and 629 as important mediators of USP7 binding in agreement with a previous study.\nNext we determined which region of USP7-CTD interacted with the ICP0 615–629 peptide. FL-USP7, USP7-CTD as well as Ubl12, Ubl123, Ubl345 and Ubl45 (Fig 1B) were used as prey in GST pull-down assays using GST-ICP0 615–629. FL-USP7 and USP7-CTD were used as positive controls while GST alone and USP7-NTD were used as negative controls.\nas §2"}}, "note": "No end group written: not given here."}
{"substance": "RRKK", "values": [{"measurement": "Binding of mutant GST-ICP0 peptides to Ubl123", "setting": "USP7 Ubl123", "value": "lacked detectable binding"}]}
{"substance": "R623A/K624A (PRGPRKCAAATRHAE; also: GST fusion partner not in chain)", "values": [{"measurement": "Binding of mutant GST-ICP0 peptides to Ubl123", "setting": "USP7 Ubl123", "value": "lacked detectable binding"}]}
{"substance": "DRTPRKRISKTLN [GST-GMPS peptide, GST fusion of GMPS residues 316–328]", "values": [{"measurement": "Binding to USP7-CTD mutant D762A/D764A", "setting": "[1]", "value": "disrupted binding"}, {"measurement": "Binding to USP7-CTD mutant D764A", "setting": "USP7-CTD mutant D764A", "value": "disrupted binding"}, {"measurement": "Binding to USP7-CTD mutant D762A", "setting": "USP7-CTD mutant D762A", "value": "disrupted binding"}, {"measurement": "Binding to WT USP7-CTD", "setting": "USP7-CTD; GST pull-down, GST-ICP0 594–775, GST-GMPS and GST-UHRF1 peptides and mutants, Fig 3H, 4C-F", "value": "interacted with USP7-CTD"}]}
{"substance": "K624A (PRGPRKCARATRHAE; also: GST fusion partner not in chain)", "values": [{"measurement": "Binding of mutant GST-ICP0 peptides to Ubl123", "setting": "USP7 Ubl123", "value": "lacked detectable binding"}]}
{"substance": "RKCARKTRHAETSGA [ICP0 619–633, GST-ICP0 fusion of ICP0 residues 619–633]", "values": [{"measurement": "Interaction with USP7-CTD (overlapping GST-ICP0 peptides)", "setting": "USP7-CTD; GST fusions 250 μg + USP7-CTD 250 μg, 50 mM Tris pH 8.0, 100 mM NaCl, 5 mM DTT, 5% glycerol, overnight 4°C, Coomassie stained gel, Fig 1A/1D, symbols not defined", "value": "strongest interaction"}, {"measurement": "Interaction with USP7-FL (overlapping GST-ICP0 peptides)", "setting": "FL-USP7", "value": "strongest interaction"}]}
{"substance": "K620A (PRGPRACARKTRHAE; also: GST fusion partner not in chain)", "values": [{"measurement": "Binding of mutant GST-ICP0 peptides to Ubl123", "setting": "USP7 Ubl123", "value": "lacked detectable binding"}]}
{"substance": "R619A/K620A (PRGPAACARKTRHAE; also: GST fusion partner not in chain)", "values": [{"measurement": "Binding of mutant GST-ICP0 peptides to Ubl123", "setting": "USP7 Ubl123", "value": "lacked detectable binding"}]}
